Test system: sleep-deprived healthy volunteers
Assay: Polysomnography (PSG) of recovery sleep after sleep deprivation in healthy volunteers
Assay type: in vivo, human
Protocol: Exploratory objectives in sleep-deprived healthy volunteers were as follows: • 1. To compare the effects of Compound A (LD and HD) and modafinil (300 mg) on promoting wakefulness as measured by MWT. • 2. To determine PK-PD relationships for selected PD measures. • 3. To evaluate PK-BP relationships in BP change after Compound A administration. • 4. To compare various polysomnography (PSG) parameters between Day −1 (predose) and Day 2 (recovery sleep). • 5. To determine whether there is any difference in the PSG parameters on Day 2 (recovery sleep) between Compound A and placebo or modafinil. • 6. To evaluate the continuous electroencephalogram (EEG) obtained during the MWTs for power spectra changes for Compound A (LD and HD) versus placebo, Compound A (LD and HD) versus modafinil, and modafinil versus placebo.
During the day before dosing on Day 1, participants were administered the KSS at scheduled timepoints. A practice MWT session was performed on Day 1 treatment period 1 (only once during the entire study) to familiarize subjects with the procedures. Study drug was administered in the clinic in the evening on Day 1 of each treatment period. Subjects underwent the MWT and KSS at specified timepoints after the start of the infusion. Subjects were required to stay awake between the MWT tests. Following completion of the IV infusion on Day 2, subjects underwent an additional MWT test. When the final MWT test and cognitive testing were completed, subjects were allowed to sleep (recovery sleep) for approximately 6 hours. PSG recording was collected during this time. Subjects were discharged from the unit after completion on Day 2 with continuing actigraphy upon discharge (to begin on Day −6 before the next treatment period). The interval between each subsequent treatment period was at least 7 days to ensure that the subject's circadian rhythm had returned to a normal cycle. Subject's vital signs, including BP, were monitored during the dosing and testing period. Blood samples for determination of Compound A plasma concentrations were collected at specified timepoints on Days 1 and 2 of each treatment period. Subjects completed the Columbia-Suicide Severity Rating Scale (C-SSRS) during screening, before study drug administration, and before discharge on Day 2 of each treatment period.
The PSGs assess recovery sleep during the day after the end of the sleep deprivation period. There were no corrections for multiple comparisons. […]

[1] = Compound A 112 mg, recovery sleep
[2] = HD: Compound A 112 mg, recovery sleep
[3] = LD: Compound A 44 mg, recovery sleep

## COC(=O)N1CCC[C@H](NS(C)(=O)=O)[C@@H]1CO[C@H]1CC[C@@H](c2ccccc2)CC1 [Compound A, methyl (2R,3S)-3-((methylsulfonyl)amino)-2-(((cis-4-phenylcyclohexyl)oxy)methyl)piperidine-1-carboxylate]
Compound A 44 mg, recovery sleep
  PSG N2 latency, LS mean difference vs placebo: -2.74 min
[1]
  PSG REM latency, LS mean difference vs placebo: 29.64 min
  PSG stage REM %, LS mean difference vs placebo: −5.66%
  PSG stage REM duration, LS mean difference vs placebo: -19.73 min
HD: Compound A 112 mg
  Stage N3 Duration LS Mean: 87.23 min
  Stage N3 Duration LS Mean Difference vs placebo Estimate: 5.85 min
  Stage REM % LS Mean: 15.72%
  Stage REM % LS Mean Difference vs placebo Estimate: −5.66%
  Stage REM Duration LS Mean: 46.83 min
  Stage REM Duration LS Mean Difference vs placebo Estimate: -19.73 min
  Stage Wake % LS Mean: 11.14%
  Stage Wake % LS Mean Difference vs placebo Estimate: 0.84%
  Stage Wake Duration LS Mean: 36.46 min
  Stage Wake Duration LS Mean Difference vs placebo Estimate: 0.93 min
  Total Arousal Index LS Mean: 9.18
  Total Arousal Index LS Mean Difference vs placebo Estimate: −0.81
  Total Arousal LS Mean: 46.54
  Total Arousal LS Mean Difference vs placebo Estimate: −3.87
  Total Leg Movements LS Mean: 16.94
  Total Leg Movements LS Mean Difference vs placebo Estimate: −2.01
  Total Leg Movements N1 LS Mean: 1.41
  Total Leg Movements N1 LS Mean Difference vs placebo Estimate: 0.15
  Total Leg Movements N2 LS Mean: 7.59
  Total Leg Movements N2 LS Mean Difference vs placebo Estimate: −0.95
  Total Leg Movements N3 LS Mean: 2.72
  Total Leg Movements N3 LS Mean Difference vs placebo Estimate: 1.09
  Total Leg Movements REM LS Mean: 4.18
  Total Leg Movements REM LS Mean Difference vs placebo Estimate: −1.57
  Total Leg Movements with Awakening LS Mean: 0.84
  Total Leg Movements with Awakening LS Mean Difference vs placebo Estimate: −0.91
  Total Leg Movements with Microarous LS Mean: 2.14
  Total Leg Movements with Microarous LS Mean Difference vs placebo Estimate: 0.13
  Total Leg Movements with Resp Event LS Mean: 0.06
  Total Leg Movements with Resp Event LS Mean Difference vs placebo Estimate: 0.01
  Total Leg Movements without Arousal LS Mean: 14.77
  Total Leg Movements without Arousal LS Mean Difference vs placebo Estimate: −2.15
  Total Recording Time LS Mean: 351.06 min
  Total Recording Time LS Mean Difference vs placebo Estimate: -5.85 min
  Total Sleep Time LS Mean: 298.98 min
  Total Sleep Time LS Mean Difference vs Placebo Estimate: -10.49 min
  Wake After Persistent Sleep LS Mean: 35.95 min
  Wake After Persistent Sleep LS Mean Difference vs placebo Estimate: 1.33 min
  Wake After Sleep Onset LS Mean: 36.46 min
  Wake After Sleep Onset LS Mean Difference vs placebo Estimate: 0.93 min
[2]
  PSG Awakenings LS Mean: 5.71
  PSG Awakenings LS Mean Difference vs Placebo Estimate: 1.22
  PSG N1 Latency LS Mean: 2.89 min
  PSG N1 Latency LS Mean Difference vs Placebo Estimate: -2.47 min
  PSG N2 Latency LS Mean: 4.72 min
  PSG N2 Latency LS Mean Difference vs Placebo Estimate: -1.93 min
  PSG N3 Latency LS Mean: 15.83 min
  PSG N3 Latency LS Mean Difference vs Placebo Estimate: -11.45 min
  PSG Per. Slp LS Mean: 4.50 min
  PSG Per. Slp LS Mean Difference vs Placebo Estimate: -2.37 min
  PSG REM Latency LS Mean: 84.57 min
  PSG REM Latency LS Mean Difference vs Placebo Estimate: 29.64 min
  PSG Sleep Efficiency LS Mean: 84.65%
  PSG Sleep Efficiency LS Mean Difference vs Placebo Estimate: −2.06%
  PSG Sleep Onset LS Mean: 2.94 min
  PSG Sleep Onset LS Mean Difference vs Placebo Estimate: -1.04 min
  PSG Spontaneous Arousal Index LS Mean: 8.26
  PSG Spontaneous Arousal Index LS Mean Difference vs Placebo Estimate: −0.67
  PSG Spontaneous Arousal LS Mean: 41.46
  PSG Spontaneous Arousal LS Mean Difference vs Placebo Estimate: −3.61
  PSG Stage N1 % LS Mean: 6.08%
  PSG Stage N1 % LS Mean Difference vs Placebo Estimate: 0.00%
  PSG Stage N1 Duration LS Mean: 18.05 min
  PSG Stage N1 Duration LS Mean Difference vs Placebo Estimate: -0.35 min
  PSG Stage N2 % LS Mean: 48.93%
  PSG Stage N2 % LS Mean Difference vs Placebo Estimate: 2.22%
  PSG Stage N2 Duration LS Mean: 147.83 min
  PSG Stage N2 Duration LS Mean Difference vs Placebo Estimate: 3.76 min
  PSG Stage N3 % LS Mean: 29.36%
  PSG Stage N3 % LS Mean Difference vs Placebo Estimate: 3.53%
LD: Compound A 44 mg
  Stage N3 Duration LS Mean: 81.05 min
  Stage N3 Duration LS Mean Difference vs placebo Estimate: -0.34 min
  Stage REM % LS Mean: 20.70%
  Stage REM % LS Mean Difference vs placebo Estimate: −0.68%
  Stage REM Duration LS Mean: 60.76 min
  Stage REM Duration LS Mean Difference vs placebo Estimate: -5.80 min
  Stage Wake % LS Mean: 10.65%
  Stage Wake % LS Mean Difference vs placebo Estimate: 0.35%
  Stage Wake Duration LS Mean: 35.55 min
  Stage Wake Duration LS Mean Difference vs placebo Estimate: 0.02 min
  Total Arousal Index LS Mean: 10.07
  Total Arousal Index LS Mean Difference vs placebo Estimate: 0.08
  Total Arousal LS Mean: 47.56
  Total Arousal LS Mean Difference vs placebo Estimate: −2.85
  Total Leg Movements LS Mean: 12.59
  Total Leg Movements LS Mean Difference vs placebo Estimate: −6.35
  Total Leg Movements N1 LS Mean: 1.60
  Total Leg Movements N1 LS Mean Difference vs placebo Estimate: 0.34
  Total Leg Movements N2 LS Mean: 6.04
  Total Leg Movements N2 LS Mean Difference vs placebo Estimate: −2.51
  Total Leg Movements N3 LS Mean: 0.65
  Total Leg Movements N3 LS Mean Difference vs placebo Estimate: −0.97
  Total Leg Movements REM LS Mean: 3.44
  Total Leg Movements REM LS Mean Difference vs placebo Estimate: −2.31
  Total Leg Movements with Awakening LS Mean: 0.68
  Total Leg Movements with Awakening LS Mean Difference vs placebo Estimate: −1.07
  Total Leg Movements with Microarous LS Mean: 2.35
  Total Leg Movements with Microarous LS Mean Difference vs placebo Estimate: 0.34
  Total Leg Movements with Resp Event LS Mean: 0.16
  Total Leg Movements with Resp Event LS Mean Difference vs placebo Estimate: 0.11
  Total Leg Movements without Arousal LS Mean: 10.21
  Total Leg Movements without Arousal LS Mean Difference vs placebo Estimate: −6.71
  Total Recording Time LS Mean: 342.50 min
  Total Recording Time LS Mean Difference vs placebo Estimate: -14.40 min
  Total Sleep Time LS Mean: 291.34 min
  Total Sleep Time LS Mean Difference vs Placebo Estimate: -18.13 min
  Wake After Persistent Sleep LS Mean: 33.78 min
  Wake After Persistent Sleep LS Mean Difference vs placebo Estimate: -0.85 min
  Wake After Sleep Onset LS Mean: 35.55 min
  Wake After Sleep Onset LS Mean Difference vs placebo Estimate: 0.02 min
[3]
  PSG Awakenings LS Mean: 4.74
  PSG Awakenings LS Mean Difference vs Placebo Estimate: 0.25
  PSG N1 Latency LS Mean: 3.60 min
  PSG N1 Latency LS Mean Difference vs Placebo Estimate: -1.76 min
  PSG N2 Latency LS Mean: 3.91 min
  PSG N2 Latency LS Mean Difference vs Placebo Estimate: -2.74 min
  PSG N3 Latency LS Mean: 21.94 min
  PSG N3 Latency LS Mean Difference vs Placebo Estimate: -5.33 min
  PSG Per. Slp LS Mean: 5.96 min
  PSG Per. Slp LS Mean Difference vs Placebo Estimate: -0.91 min
  PSG REM Latency LS Mean: 75.10 min
  PSG REM Latency LS Mean Difference vs Placebo Estimate: 20.16 min
  PSG Sleep Efficiency LS Mean: 84.95%
  PSG Sleep Efficiency LS Mean Difference vs Placebo Estimate: −1.77%
  PSG Sleep Onset LS Mean: 2.71 min
  PSG Sleep Onset LS Mean Difference vs Placebo Estimate: -1.28 min
  PSG Spontaneous Arousal Index LS Mean: 8.58
  PSG Spontaneous Arousal Index LS Mean Difference vs Placebo Estimate: −0.36
  PSG Spontaneous Arousal LS Mean: 40.21
  PSG Spontaneous Arousal LS Mean Difference vs Placebo Estimate: −4.86
  PSG Stage N1 % LS Mean: 5.69%
  PSG Stage N1 % LS Mean Difference vs Placebo Estimate: −0.39%
  PSG Stage N1 Duration LS Mean: 16.29 min
  PSG Stage N1 Duration LS Mean Difference vs Placebo Estimate: -2.12 min
  PSG Stage N2 % LS Mean: 46.04%
  PSG Stage N2 % LS Mean Difference vs Placebo Estimate: −0.66%
  PSG Stage N2 Duration LS Mean: 134.21 min
  PSG Stage N2 Duration LS Mean Difference vs Placebo Estimate: -9.86 min
  PSG Stage N3 % LS Mean: 27.65%
  PSG Stage N3 % LS Mean Difference vs Placebo Estimate: 1.82%
Both Compound A groups (44 and 112 mg), recovery sleep
  PSG sleep efficiency, arousals, and total sleep compared with placebo: not different from placebo

From US20220331303A1, “USE OF AN OREXIN 2 RECEPTOR AGONIST FOR THE TREATMENT OF EXCESSIVE SLEEPINESS” (Takeda Pharmaceutical Company Limited, priority 2019, published 2022)
